How the values were obtained:
[1] = system: neuropathic pain model by partial sciatic nerve ligation; assay: Electrical stimulation-induced paw withdrawal (EPW) test, hypoesthesia after nerve injury; format: in vivo, C57BL male mice; settings: 0.5 nmol i.t. once per day from 3 days after nerve injury; observed 4 and 5 days after injury
[2] = system: neuropathic pain model by partial sciatic nerve ligation; assay: Thermal paw withdrawal test, morphine resistance after nerve injury; format: in vivo, C57BL male mice; settings: compound 0.5 nmol i.t. from 3 days after injury; morphine 30 nmol i.pl. 5 days after injury
[3] = system: DAOY (human medulloblastoma cell strain); assay: MTT assay using a human medulloblastoma cell strain (Example 2, relative growth); format: cell-based; settings: DAOY cells
Text: Cell growth effects were examined on 3,5-dimethylpiperidyl 3-methyl-4-nitrophenyl ketone (compound 155) and 1-[4-(difluoromethoxy)phenyl]-2-(3,5-dimethylpiperidyl)ethan-1-one (compound A28) (MTT assay using a human medulloblastoma cell strain).
Compounds: 3,5-dimethylpiperidyl 3-methyl-4-nitrophenyl ketone (compound 155) (purchased from SPECS); 1-[4-(difluoromethoxy)phenyl]-2-(3,5-dimethylpiperidyl)ethan-1-one (compound A28) (purchased from Enamine)
Cell: DAOY (human medulloblastoma cell strain) (provided by Kanno, Department of Neurosurgery, School of Medicine, Yokohama City University)
(§1) Medium: DMEM (High Glucose, Nacalai Tesque)
Reagent for cell counting: MTT cell counting kit (Nacalai Tesque) MTT Assay: (operations)
Day −1: DAOY was plated on three 96-well plates at 5×10^3 cells/well. These three plates were for use on day 0, day 1 and day 3, respectively. As a medium, 10% FBS-containing DMEM was used.
Day 0: MTT assay was carried out using the plate for day 0 to measure the activity at the basal cell count. With respect to the plates for day 1 and day 3, the compound was added to give a concentration of 100 μg/ml (as controls, DMEM alone and DMEM containing DMSO (solvent) were used). Specifically, the compound-containing DMEM was prepared in advance, and the compound was added to the plate through medium exchange. At this time, FBS concentration was lowered to 5% in order to prevent the masking of the compound's effect due to excessive growth signals. Day 1: MTT assay was carried out using the plate for day 1. Day 3: MTT assay was carried out using the plate for day 3. Data Analysis: Relative growths on day 1 and day 3 were calculated, with the average of MTT activities (Ab 570 nm) on day 0 in the rows of wells for addition of the respective compounds being taken, as 100.
Each experiment was performed in quadruple and each run was repeated three times. Relative values based on the values of day 0 were used to calculate data for n=12 wells and statistical tests were performed.
Test was by t-test between the cell count with DMEM alone and the cell count with the compound or DMSO.
MIT Assay: A technique for cell counting using the respiratory activity of mitochondria as an indicator. When the respiratory activity is high (the value at Ab 570 nm is high), it can be interpreted that the cell count is large.

[4] = system: DAOY (human medulloblastoma cell strain); assay: MTT assay, growth inhibition against human medulloblastoma cells (Example 3); format: cell-based; set-up: dose or concentration left out as unconfirmed; settings: final concentration 200
Experimental: Compounds: No. 5, No. 15, No. 23, NCR 6, NCR 7, NCR 11, NCR 13, NCR 14, NCR 15
Cell: DAOY (human medulloblastoma cell strain)
as §1
Reagent for cell counting: MTT cell counting kit (Nacalai Tesque) *Hereinafter, referred to as MTT assay.
DAOY was plated on three 96-well plates at 5×10^3 cells/well. These three plates were for use on day 0, day 1 and day 3, respectively. As a medium, 10% FBS-containing DMEM was used.
The medium in the plate for day 0 was exchanged with 5% FBS-containing DMEM, and cells were cultured therein for 30 minutes. Then, MTT assay was carried out to measure the activity at the basal cell count.
With respect to the plates for day 1 and day 3, the medium was exchanged with 5% FBS-containing medium, and the compound was added simultaneously at this time (as a control, DMSO (the solvent) alone was added).
MTT assay was carried out using the plate for day 1.
MTT assay was carried out using the plate for day 3.
Relative growths on day 1 and day 3 were calculated, with the average of MTT activities (Ab 570 nm) […] in the rows of wells for the respective compounds being taken as 100. Each experiment was performed in quadruple.
Statistical test was performed by compound-treated cells and DMSO-treated cells.

Nav 1.8 = assay: Quantitative real time PCR of Nav 1.8 mRNA in dorsal root ganglia after nerve injury; format: in vivo, C57BL male mice; settings: 0.5 nmol i.t., single administration 3 days after nerve injury
MOP = assay: Quantitative real time PCR of MOP mRNA in dorsal root ganglia after nerve injury; format: in vivo, C57BL male mice; settings: 0.5 nmol i.t., single administration 3 days after nerve injury; 3, 6 and 12 hours after administration; n=3; tendency
[5] = Day 0, basal cell count before compound addition
[6] = Day 1, compound 100 μg/ml, 5% FBS DMEM

SMILES | melting point | further results
CCN(CC)C(=O)c1ccc([N+](=O)[O-])c(C)c1 [NCR-9, N,N-Diethyl-3 Methyl-4-Nitrobenzamide] | 74.5 to 76 °C | –
Cc1cc(C(=O)N(Cc2ccccc2)Cc2ccccc2)ccc1[N+](=O)[O-] [NCR-18, N,N-Dibenzyl-3-Methyl-4-Nitrobenzamide] | 105.8 to 108.7 °C | –
CC(C)CCNC(=O)CCC(=O)NCc1ccc(F)cc1 [compound 106, N-[(4-fluorophenyl)methyl]-N′-(3-methylbutyl)butane-1,4-diamide] | – | effect on hypoesthesia (pain threshold in response to C-fiber stimulation), EPW test [1]: no effect on pain threshold; peripheral morphine analgesia after nerve injury, thermal paw withdrawal test [2]: morphine analgesia was hardly recognized
Cc1cc(C(=O)NC2CCCCC2)ccc1[N+](=O)[O-] [NCR-22, N-Cyclohexyl-3-Methyl-4-Nitrobenzamide] | 134.2 to 141 °C | –
CC1CC(C)CN(C(=O)c2ccc(Cl)cc2)C1 (stereo not drawn) [NCR-11, 3,5-Dimethyl-1-(4-Chlorobenzoyl)piperidine] | 113.5 to 115.4 °C | –
Cc1cc(S(=O)(=O)N2CC(C)CC(C)C2)ccc1[N+](=O)[O-] (stereo not drawn) [NCR-12, 3,5-Dimethyl-1-[(3-Methyl-4-Nitrophenyl)sulfonyl]piperidine] | 132.7 to 138.5 °C | –
Cc1cc(C(=O)N2CCCCC2)ccc1[N+](=O)[O-] [NCR-8, 1-(3-Methyl-4-Nitrobenzoyl)piperidine] | 71.7 to 72.2 °C | –
Cc1cc(C(=O)N2CCCC(C)C2)ccc1[N+](=O)[O-] (stereo not drawn) [NCR-3, 3-Methyl-1-(3-Methyl-4-Nitrobenzoyl)piperidine] | 82 to 82.8 °C | –
Cc1cc(C(=O)N2CC(C)CC(C)C2)ccc1[N+](=O)[O-] (stereo not drawn) [compound 155, 3,5-dimethylpiperidyl 3-methyl-4-nitrophenyl ketone] | – | Relative Growth (MTT activity, Ab 570 nm, day 0 average taken as 100) [3, 5]: 100.00 ± 5.08; Relative Growth (MTT activity, Ab 570 nm, day 0 average taken as 100) [3, 6]: 123.16 ± 10.03; Relative Growth (MTT activity, Ab 570 nm, day 0 average taken as 100) ([3]; Day 3, compound 100 μg/ml, 5% FBS DMEM): 105.07 ± 17.53
Cc1cc(C(=O)N2C(C)CCCC2C)ccc1[N+](=O)[O-] (stereo not drawn) [NCR-17, 2,6-Dimethyl-1-(3-Methyl-4-Nitrobenzoyl)piperidine] | 99.7 to 100.5 °C | –
CC1CC(C)CN(C(=O)c2ccccc2)C1 (stereo not drawn) [NCR-6, 1-(Benzoyl)-3,5-Dimethyl piperidine] | 107.2 to 108.7 °C | –
CC1CC(C)CN(C(=O)c2ccc([N+](=O)[O-])cc2)C1 (stereo not drawn) [NCR-2, 3,5-Dimethyl-1-(4-Nitrobenzoyl)piperidine] | 120 to 125 °C | –
Cc1cc(C(=O)N(C(C)C)C(C)C)ccc1[N+](=O)[O-] [NCR-15, N,N-Diisopropyl-3-Methyl-4-Nitrobenzamide] | 107.6 to 109.7 °C | –
Cc1cc(CN2CC(C)CC(C)C2)ccc1[N+](=O)[O-] (stereo not drawn) [NCR 7, 3,5-Dimethyl-1-(3-Methyl-4-Nitrobenzyl)piperidine] | – | cytotoxicity (MTT assay) [4]: cytotoxicity was observed
Cc1cc(C(=O)N2CCCC2)ccc1[N+](=O)[O-] [NCR-19, 1-(3-Methyl-4-Nitrobenzoyl)pyrrolidine] | 61.3 to 61.9 °C | –
CC1CCCN(C(=O)c2ccc([N+](=O)[O-])cc2)C1 (stereo not drawn) [NCR-4, 3-Methyl-1-(4-Nitrobenzoyl)piperidine] | 70.2 to 71.3 °C | –
CC1CC(C)CN(CC(=O)c2ccc(OC(F)F)cc2)C1 (stereo not drawn) [compound A28, 1-[4-(difluoromethoxy)phenyl]-2-(3,5-dimethylpiperidyl)ethan-1-one] | – | time needed for the effect on Nav 1.8 and MOP expression to appear (Nav 1.8): 3 to 6 h; recovery of the lowering of expression of Nav 1.8 after nerve injury (Nav 1.8; 3, 6 and 12 hours after administration, n=3, tendency): 10-15%; Relative Growth (MTT activity, Ab 570 nm, day 0 average taken as 100) [3, 5]: 100.00 ± 6.56; Relative Growth (MTT activity, Ab 570 nm, day 0 average taken as 100) [3, 6]: 233.28 ± 1.69; recovery of the lowering of expression of MOP after nerve injury (MOP): 10-15%

Source: patent publication US9206125B2, “Use of compound binding to mSin3B that specifically binds to neuron restrictive silencer factor (NRSF)” (PUBLIC UNIVERSITY CORPORATION YOKOHAMA CITY UNIVERSITY, priority 2010, dated 2015)
